What was measured:
Type in all cases: biochemical
[1] = target: T1, PKA(h) (Homo sapiens, UniProt P17612); experiment: Kinase selectivity panel: PKA; details: 1 µM
T1 construct: purchased Eurofins (Millipore) KinaseProfiler Diversity Panel
Procedure: (§1) To confirm the anti-inflammatory effect was caused by RIPK2 inhibition, compound 14 was subjected to kinase selectivity evaluation (Figure 4). Kinase selectivity profile of compound 14 as shown by the diversity kinase Panel screen against 70 kinases assayed at 1 µM. Among all tested 70 kinases, only five were inhibited over 90% at 1 µM including Fyn, Lyn, BTK, Abl and RIPK2. Three kinases including KDR, CDK9 and LOK were inhibited 50–90% at 1 µM.

[2] = target: T2, CDK6/cyclinD3(h) (Homo sapiens, UniProt Q00534); experiment: Kinase selectivity panel: CDK6/cyclinD3
T2 construct: purchased Eurofins (Millipore) KinaseProfiler Diversity Panel
Procedure: as §1

[3] = target: T3, MST1(h) (Homo sapiens, UniProt Q13043); experiment: Kinase selectivity panel: MST1
T3 construct: purchased Eurofins (Millipore) KinaseProfiler Diversity Panel
Procedure: as §1

[4] = target: T4, PKCθ(h) (Homo sapiens, UniProt Q04759); experiment: Kinase selectivity panel: PKCθ
T4 construct: purchased Eurofins (Millipore) KinaseProfiler Diversity Panel
Procedure: as §1

[5] = target: T5, MLK1(h) (Homo sapiens, UniProt P80192); experiment: Kinase selectivity panel: MLK1
T5 construct: purchased Eurofins (Millipore) KinaseProfiler Diversity Panel
Procedure: as §1

[6] = target: T6, CHK1(h) (Homo sapiens, UniProt O14757); experiment: Kinase selectivity panel: CHK1
T6 construct: purchased Eurofins (Millipore) KinaseProfiler Diversity Panel
Procedure: as §1

[7] = target: T7, AMPKα1(h) (Homo sapiens, UniProt Q13131); experiment: Kinase selectivity panel: AMPKα1
T7 construct: purchased Eurofins (Millipore) KinaseProfiler Diversity Panel
Procedure: as §1

[8] = target: T8, ROCK-I(h) (Homo sapiens, UniProt Q13464); experiment: Kinase selectivity panel: ROCK-I; details: 1 µM
T8 construct: purchased Eurofins (Millipore) KinaseProfiler Diversity Panel
Procedure: as §1

[9] = target: T9, PKG1α(h) (Homo sapiens, UniProt Q13976); experiment: Kinase selectivity panel: PKG1α
T9 construct: purchased Eurofins (Millipore) KinaseProfiler Diversity Panel
Procedure: as §1

[10] = target: T10, DRAK1(h) (Homo sapiens, UniProt Q9UEE5); experiment: Kinase selectivity panel: DRAK1; details: 1 µM
T10 construct: purchased Eurofins (Millipore) KinaseProfiler Diversity Panel
Procedure: as §1

[11] = target: T11, Itk(h) (Homo sapiens, UniProt Q08881); experiment: Kinase selectivity panel: Itk
T11 construct: purchased Eurofins (Millipore) KinaseProfiler Diversity Panel
Procedure: as §1

[12] = target: T12, SRPK1(h) (Homo sapiens, UniProt Q96SB4); experiment: Kinase selectivity panel: SRPK1; parameters: unit not given here
T12 construct: purchased Eurofins (Millipore) KinaseProfiler Diversity Panel
Procedure: as §1

T7 sequence (Q13131 whole entry): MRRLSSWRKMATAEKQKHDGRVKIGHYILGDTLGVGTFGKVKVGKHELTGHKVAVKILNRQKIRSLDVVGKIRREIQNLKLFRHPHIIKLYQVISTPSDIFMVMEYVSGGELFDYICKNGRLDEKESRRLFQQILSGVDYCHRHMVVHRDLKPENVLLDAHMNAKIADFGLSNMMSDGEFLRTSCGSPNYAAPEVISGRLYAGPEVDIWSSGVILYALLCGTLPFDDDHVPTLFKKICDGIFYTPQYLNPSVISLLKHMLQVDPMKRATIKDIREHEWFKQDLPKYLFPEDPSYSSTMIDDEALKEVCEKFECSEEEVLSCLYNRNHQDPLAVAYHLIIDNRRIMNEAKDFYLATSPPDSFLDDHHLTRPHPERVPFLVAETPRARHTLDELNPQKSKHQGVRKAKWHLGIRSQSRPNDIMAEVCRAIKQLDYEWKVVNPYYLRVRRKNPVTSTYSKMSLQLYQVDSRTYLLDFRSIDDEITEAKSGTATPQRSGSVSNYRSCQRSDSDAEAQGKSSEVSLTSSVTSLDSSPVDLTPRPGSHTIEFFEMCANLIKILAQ
T7 sequence (Q9Y478 whole entry partner): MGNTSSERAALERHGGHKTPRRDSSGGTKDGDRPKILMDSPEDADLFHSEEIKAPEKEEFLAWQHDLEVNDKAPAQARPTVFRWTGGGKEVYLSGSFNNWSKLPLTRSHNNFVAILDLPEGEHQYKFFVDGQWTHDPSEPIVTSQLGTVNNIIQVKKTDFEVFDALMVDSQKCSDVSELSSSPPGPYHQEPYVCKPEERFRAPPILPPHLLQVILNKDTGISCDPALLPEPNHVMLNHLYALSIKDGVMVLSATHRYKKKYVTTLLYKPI
T7 sequence (P54619 whole entry partner): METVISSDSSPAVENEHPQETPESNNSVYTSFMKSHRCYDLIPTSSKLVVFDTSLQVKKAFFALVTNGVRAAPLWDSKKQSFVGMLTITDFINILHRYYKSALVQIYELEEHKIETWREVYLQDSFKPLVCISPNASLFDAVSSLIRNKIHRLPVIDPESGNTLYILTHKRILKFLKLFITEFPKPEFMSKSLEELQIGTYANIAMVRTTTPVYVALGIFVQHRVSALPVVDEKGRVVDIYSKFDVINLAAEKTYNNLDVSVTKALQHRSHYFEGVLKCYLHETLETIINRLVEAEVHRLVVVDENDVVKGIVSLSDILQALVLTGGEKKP
T10 sequence (Q9UEE5 whole entry): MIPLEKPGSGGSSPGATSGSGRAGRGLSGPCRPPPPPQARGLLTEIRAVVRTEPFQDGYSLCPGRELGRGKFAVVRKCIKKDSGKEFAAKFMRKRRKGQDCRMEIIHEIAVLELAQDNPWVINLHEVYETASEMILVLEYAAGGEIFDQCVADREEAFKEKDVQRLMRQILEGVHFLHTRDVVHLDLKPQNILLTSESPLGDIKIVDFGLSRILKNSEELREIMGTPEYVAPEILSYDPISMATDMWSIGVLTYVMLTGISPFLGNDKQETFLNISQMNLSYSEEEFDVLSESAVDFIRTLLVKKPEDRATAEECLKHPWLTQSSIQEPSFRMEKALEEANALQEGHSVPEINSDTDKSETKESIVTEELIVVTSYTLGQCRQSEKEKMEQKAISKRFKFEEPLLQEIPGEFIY
T12 sequence (Q96SB4 whole entry): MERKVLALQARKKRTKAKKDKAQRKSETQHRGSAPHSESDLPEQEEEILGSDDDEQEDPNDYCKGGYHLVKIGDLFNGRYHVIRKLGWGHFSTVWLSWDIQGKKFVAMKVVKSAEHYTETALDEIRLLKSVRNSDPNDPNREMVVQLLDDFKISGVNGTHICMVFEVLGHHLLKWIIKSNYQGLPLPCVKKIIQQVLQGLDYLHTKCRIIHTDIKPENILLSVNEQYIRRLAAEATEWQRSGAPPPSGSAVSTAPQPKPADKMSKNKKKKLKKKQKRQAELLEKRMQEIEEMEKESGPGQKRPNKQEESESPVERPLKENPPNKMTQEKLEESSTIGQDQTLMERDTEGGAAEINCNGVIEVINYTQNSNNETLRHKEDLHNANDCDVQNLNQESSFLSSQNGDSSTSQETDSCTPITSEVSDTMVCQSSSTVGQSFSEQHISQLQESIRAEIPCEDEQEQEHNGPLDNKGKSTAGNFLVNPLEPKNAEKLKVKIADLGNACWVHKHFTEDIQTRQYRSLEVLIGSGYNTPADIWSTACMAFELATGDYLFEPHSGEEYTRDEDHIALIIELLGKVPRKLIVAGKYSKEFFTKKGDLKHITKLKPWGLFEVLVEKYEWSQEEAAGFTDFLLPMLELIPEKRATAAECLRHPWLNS
T3 sequence (Q13043 whole entry): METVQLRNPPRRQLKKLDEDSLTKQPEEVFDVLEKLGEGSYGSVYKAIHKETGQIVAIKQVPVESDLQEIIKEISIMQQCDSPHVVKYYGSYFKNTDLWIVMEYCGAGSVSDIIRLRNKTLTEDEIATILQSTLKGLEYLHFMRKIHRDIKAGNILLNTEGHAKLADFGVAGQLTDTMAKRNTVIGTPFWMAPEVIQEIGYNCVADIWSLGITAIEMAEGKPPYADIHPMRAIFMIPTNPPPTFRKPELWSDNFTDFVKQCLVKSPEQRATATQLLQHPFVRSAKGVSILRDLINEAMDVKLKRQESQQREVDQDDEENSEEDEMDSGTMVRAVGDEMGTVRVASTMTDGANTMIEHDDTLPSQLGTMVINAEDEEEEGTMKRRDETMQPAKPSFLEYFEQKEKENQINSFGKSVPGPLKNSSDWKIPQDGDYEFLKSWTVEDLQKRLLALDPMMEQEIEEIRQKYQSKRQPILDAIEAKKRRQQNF
T8 sequence (Q13464 whole entry): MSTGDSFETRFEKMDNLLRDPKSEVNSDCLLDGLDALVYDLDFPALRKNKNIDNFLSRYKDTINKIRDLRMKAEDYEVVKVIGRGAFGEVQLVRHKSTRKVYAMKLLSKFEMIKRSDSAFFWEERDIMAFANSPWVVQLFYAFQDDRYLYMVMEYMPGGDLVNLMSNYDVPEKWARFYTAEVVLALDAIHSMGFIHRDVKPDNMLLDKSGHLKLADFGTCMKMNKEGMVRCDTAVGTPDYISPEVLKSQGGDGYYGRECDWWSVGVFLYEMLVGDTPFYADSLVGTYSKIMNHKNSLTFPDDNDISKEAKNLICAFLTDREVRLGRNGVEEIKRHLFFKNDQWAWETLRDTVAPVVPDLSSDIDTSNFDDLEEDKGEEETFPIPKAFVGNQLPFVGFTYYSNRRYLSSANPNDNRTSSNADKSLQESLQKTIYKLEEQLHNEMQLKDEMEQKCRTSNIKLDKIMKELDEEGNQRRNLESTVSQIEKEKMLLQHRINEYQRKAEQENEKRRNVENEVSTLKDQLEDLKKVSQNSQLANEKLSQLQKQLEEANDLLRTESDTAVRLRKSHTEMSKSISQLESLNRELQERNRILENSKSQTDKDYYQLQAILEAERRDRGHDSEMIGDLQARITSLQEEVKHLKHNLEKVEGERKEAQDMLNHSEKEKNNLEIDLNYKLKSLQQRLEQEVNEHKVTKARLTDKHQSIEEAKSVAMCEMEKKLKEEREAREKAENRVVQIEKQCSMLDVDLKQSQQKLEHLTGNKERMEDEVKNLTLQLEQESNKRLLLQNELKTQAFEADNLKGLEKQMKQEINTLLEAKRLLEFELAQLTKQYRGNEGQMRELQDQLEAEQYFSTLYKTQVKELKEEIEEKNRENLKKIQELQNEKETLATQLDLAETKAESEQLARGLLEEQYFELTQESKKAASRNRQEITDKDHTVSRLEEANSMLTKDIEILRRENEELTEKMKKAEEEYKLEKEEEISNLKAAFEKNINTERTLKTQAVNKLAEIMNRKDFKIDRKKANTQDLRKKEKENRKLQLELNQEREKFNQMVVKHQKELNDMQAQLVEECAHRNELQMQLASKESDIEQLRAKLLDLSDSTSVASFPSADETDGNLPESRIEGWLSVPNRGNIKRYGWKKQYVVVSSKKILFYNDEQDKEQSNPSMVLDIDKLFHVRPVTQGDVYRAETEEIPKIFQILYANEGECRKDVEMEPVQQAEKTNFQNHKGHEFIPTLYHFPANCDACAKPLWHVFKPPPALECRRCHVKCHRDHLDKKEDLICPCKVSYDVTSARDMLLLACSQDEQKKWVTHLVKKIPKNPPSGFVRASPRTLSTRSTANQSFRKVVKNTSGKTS
T9 sequence (Q13976 whole entry): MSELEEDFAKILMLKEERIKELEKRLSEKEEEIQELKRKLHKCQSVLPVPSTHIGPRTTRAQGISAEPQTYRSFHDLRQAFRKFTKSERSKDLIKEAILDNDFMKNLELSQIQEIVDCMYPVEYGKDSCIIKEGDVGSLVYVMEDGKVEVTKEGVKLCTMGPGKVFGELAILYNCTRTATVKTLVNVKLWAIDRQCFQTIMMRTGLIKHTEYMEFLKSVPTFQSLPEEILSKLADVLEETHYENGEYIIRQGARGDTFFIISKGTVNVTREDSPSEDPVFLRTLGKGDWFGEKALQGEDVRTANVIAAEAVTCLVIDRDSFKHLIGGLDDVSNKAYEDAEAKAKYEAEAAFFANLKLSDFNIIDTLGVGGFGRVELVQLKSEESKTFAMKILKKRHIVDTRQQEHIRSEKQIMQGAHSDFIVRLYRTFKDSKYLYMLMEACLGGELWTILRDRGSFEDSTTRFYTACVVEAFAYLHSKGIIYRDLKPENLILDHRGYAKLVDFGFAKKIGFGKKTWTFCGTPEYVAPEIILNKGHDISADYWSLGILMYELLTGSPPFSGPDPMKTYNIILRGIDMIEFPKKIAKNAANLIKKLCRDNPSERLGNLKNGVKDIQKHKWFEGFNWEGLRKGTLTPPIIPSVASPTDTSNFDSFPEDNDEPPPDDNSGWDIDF

With `c1cc(-c2ccc3nccc(Nc4ccc5scnc5c4)c3c2)ccn1` [Compound 14, N-(6-(pyridin-4-yl)quinolin-4-yl)benzo[d]thiazol-5-amine] the “Remaining kinase activity (% of control)” value [1] was 117, the “Remaining kinase activity (%) at 1 µM” value [2] was 100 and the “MST1 kinase activity remaining with compound 14 at 1 µM (% of control)” value [3] was 105. The “remaining kinase activity (% of control) at 1 µM” value [4] was 74, the “Remaining MLK1 activity (%) with compound 14 at 1 µM” value [5] was 89 and the “CHK1 remaining activity (% of control) at 1 µM” value [6] was 100. The “Remaining kinase activity (%) with compound 14 at 1 µM” value [7] was 103, the “Remaining kinase activity (% of control)” value [8] was 70 and the “Remaining PKG1α activity (% of control) with compound 14 at 1 µM” value [9] was 64. For the same compound, the “Remaining DRAK1 activity (% of control)” value [10] was 110, the “Remaining Itk kinase activity (%) with compound 14 at 1 µM” value [11] was 78 and the “SRPK1(h), 14 @ 1 µM” value [12] was 111.

Source: article PMC9683047, “Design, synthesis and biological evaluation of 4-aminoquinoline derivatives as receptor-interacting protein kinase 2 (RIPK2) inhibitors” (Journal of Enzyme Inhibition and Medicinal Chemistry, 2022)
